Data as given in patent EP4707277A1, “NOVEL HETEROCYCLIC AMINE DERIVATIVES AND PHARMACEUTICAL COMPOSITION COMPRISING SAME” (Daewoong Pharmaceutical Co., Ltd., priority 2023, dated 2024).
Like-named read-outs stand apart in the source and are kept apart here.

Experiments:
BTK = biological target: T1, BTK (Homo sapiens, UniProt Q06187); experiment: Inhibitory activity against BTK, ADP-Glo Kinase system (Promega); format: biochemical
T1 construct: purchased Signalchem B10-10H
In short: (§1)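 ADP-Glo luminescent ADP detection with recombinant human ITK (4 ng/reaction) or BTK (10 ng/reaction) and poly(Glu4,Tyr1) substrate at 0.2 µg/µl. Buffer: Tris pH 7.5, MgCl2, MnCl2, BSA, DTT. ATP 1 mM or Km (BTK 10 µM, ITK 25 µM); 1% DMSO; 1 h at 30°C; IC50 from curve fit.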

ITK = biological target: T2, ITK (Homo sapiens, UniProt Q08881); experiment: Inhibitory activity against ITK, ADP-Glo Kinase system (Promega); format: biochemical
T2 construct: purchased Signalchem I13-11G-10
T2 sequence (Q08881 1-620): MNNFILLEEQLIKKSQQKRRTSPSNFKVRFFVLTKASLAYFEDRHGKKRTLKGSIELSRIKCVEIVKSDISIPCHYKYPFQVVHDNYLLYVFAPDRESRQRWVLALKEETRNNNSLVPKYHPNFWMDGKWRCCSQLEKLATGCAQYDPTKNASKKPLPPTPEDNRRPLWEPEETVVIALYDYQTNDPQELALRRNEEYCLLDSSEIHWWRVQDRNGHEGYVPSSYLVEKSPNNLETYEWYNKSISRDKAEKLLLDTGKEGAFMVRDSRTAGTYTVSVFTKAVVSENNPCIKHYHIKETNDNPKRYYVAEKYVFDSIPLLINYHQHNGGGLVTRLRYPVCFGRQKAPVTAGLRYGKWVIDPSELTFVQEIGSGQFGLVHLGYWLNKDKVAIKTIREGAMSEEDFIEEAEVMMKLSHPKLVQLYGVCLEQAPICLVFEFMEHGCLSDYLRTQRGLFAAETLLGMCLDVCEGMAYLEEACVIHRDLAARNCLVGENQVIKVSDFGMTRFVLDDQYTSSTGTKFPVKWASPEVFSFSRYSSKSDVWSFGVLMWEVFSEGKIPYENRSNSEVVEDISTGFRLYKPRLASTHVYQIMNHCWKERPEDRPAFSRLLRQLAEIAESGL
In short: as §1

[1] = 1mM ATP, read-out: BTK IC50(nM) 1mM ATP
[2] = 1mM ATP, read-out: ITK IC50(nM) 1mM ATP
[3] = Km ATP (BTK: 10 uM), read-out: BTK IC50(nM) Km ATP
[4] = Km ATP (ITK: 25uM), read-out: ITK IC50(nM) Km ATP

T1 sequence (Q06187 whole entry): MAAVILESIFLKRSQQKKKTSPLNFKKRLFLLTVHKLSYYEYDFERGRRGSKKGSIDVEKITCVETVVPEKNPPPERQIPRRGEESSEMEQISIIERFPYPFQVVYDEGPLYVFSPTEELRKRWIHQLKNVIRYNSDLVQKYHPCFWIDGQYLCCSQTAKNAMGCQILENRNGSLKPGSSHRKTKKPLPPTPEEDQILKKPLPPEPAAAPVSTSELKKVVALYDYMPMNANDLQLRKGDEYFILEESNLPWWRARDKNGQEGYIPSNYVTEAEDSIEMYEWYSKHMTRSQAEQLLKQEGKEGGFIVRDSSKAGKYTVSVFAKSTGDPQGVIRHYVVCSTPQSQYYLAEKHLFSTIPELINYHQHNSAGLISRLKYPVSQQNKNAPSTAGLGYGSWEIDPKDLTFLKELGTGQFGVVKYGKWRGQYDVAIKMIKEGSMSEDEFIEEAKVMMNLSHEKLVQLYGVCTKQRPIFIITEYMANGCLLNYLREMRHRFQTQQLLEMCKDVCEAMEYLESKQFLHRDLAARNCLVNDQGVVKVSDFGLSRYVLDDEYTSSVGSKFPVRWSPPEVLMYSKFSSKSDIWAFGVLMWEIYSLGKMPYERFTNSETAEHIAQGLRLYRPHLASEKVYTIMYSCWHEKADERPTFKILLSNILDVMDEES

Compound | IC50 (BTK; [1]) | IC50 (ITK; [2]) | IC50 (BTK; [3]) | IC50 (ITK; [4])
C=CC(=O)N1CC=C(c2nc(Nc3ncc(C)s3)cc3c2ccn3CC2CC2)CC1 [Example 4, 1-(4-(1-(cyclopropylmethyl)-6-((5-methylthiazol-2-yl)amino)-1H-pyrrolo[3,2-c]pyridin-4-yl)-3,6-dihydropyridin-1(2H)-yl)prop-2-en-1-one] | 20 to 100 nM | 20 to 100 nM | ≤ 20 nM | ≤ 20 nM
C=CC(=O)N1CC=C(c2nc(Nc3nnc(C)s3)cc3c2ccn3C(C)C)CC1 [Example 41, 1-(4-(1-isopropyl-6-((5-methyl-1,3,4-thiadiazol-2-yl)amino)-1H-pyrrolo[3,2-c]pyridin-4-yl)-3,6-dihydropyridin-1(2H)-yl)prop-2-en-1-one] | – | – | 20 to 100 nM | > 500 nM
C=CC(=O)N1CC=C(c2nc(Nc3ncc[nH]3)cc3c2ccn3C)CC1 [Example 40, 1-(4-(6-((1H-imidazol-2-yl)amino)-1-methyl-1H-pyrrolo[3,2-c]pyridin-4-yl)-3,6-dihydropyridin-1(2H)-yl)prop-2-en-1-one] | – | – | 100 to 500 nM | > 500 nM
C=CC(=O)N1C[C@H](F)[C@H](Oc2nc(Nc3ncc(C)s3)cc3c2ccn3CCOC)C1 [Example 147, 1-((3S,4R)-3-fluoro-4-((1-(2-methoxyethyl)-6-((5-methylthiazol-2-yl)amino)-1H-pyrrolo[3,2-c]pyridin-4-yl)oxy)pyrrolidin-1-yl)prop-2-en-1-one] | ≤ 20 nM | ≤ 20 nM | – | –
C=CC(=O)N1CC[C@H](Oc2nc(Nc3ncc(CC)s3)cc3c2ccn3CC(C)C)C1 [Example 122, (S)-1-(3-((6-((5-ethylthiazol-2-yl)amino)-1-isobutyl-1H-pyrrolo[3,2-c]pyridin-4-yl)oxy)pyrrolidin-1-yl)prop-2-en-1-one] | – | – | ≤ 20 nM | ≤ 20 nM
C=CC(=O)N1CCC[C@H](Oc2nc(Nc3ncc(C)s3)cc3c2ccn3CCC)C1 [Example 160, (S)-1-(3-((6-((5-methylthiazol-2-yl)amino)-1-propyl-1H-pyrrolo[3,2-c]pyridin-4-yl)oxy)piperidin-1-yl)prop-2-en-1-one] | 100 to 500 nM | 100 to 500 nM | – | –
C=CC(=O)N1CC=C(c2nc(Nc3ncc(C)s3)cc3c2ccn3CC2CCOC2)CC1 (stereo not shown) [Example 8, 1-(4-(6-((5-methylthiazol-2-yl)amino)-1-((tetrahydrofuran-3-yl)methyl)-1H-pyrrolo[3,2-c]pyridin-4-yl)-3,6-dihydropyridin-1(2H)-yl)prop-2-en-1-one] | – | – | ≤ 20 nM | ≤ 20 nM

The remaining lines, values ahead:

IC50 (BTK; [1]) | IC50 (ITK; [2]) | IC50 (BTK; [3]) | IC50 (ITK; [4]) | Compound
≤ 20 nM | 20 to 100 nM | – | – | C=CC(=O)N1CCC[C@H](Oc2nc(Nc3ncc(C)s3)cc3c2ccn3CC(C)C)C1 [Example 150, (S)-1-(3-((1-isobutyl-6-((5-methylthiazol-2-yl)amino)-1H-pyrrolo[3,2-c]pyridin-4-yl)oxy)piperidin-1-yl)prop-2-en-1-one]
20 to 100 nM | 100 to 500 nM | – | – | C=CC(=O)N1CCCC12CC(Oc1nc(Nc3ncc(C)s3)cc3c1ccn3CC(C)C)C2 (stereo not shown) [Example 200, 1-(2-((1-isobutyl-6-((5-methylthiazol-2-yl)amino)-1H-pyrrolo[3,2-c]pyridin-4-yl)oxy)-5-azaspiro[3.4]octan-5-yl)prop-2-en-1-one]
≤ 20 nM | 20 to 100 nM | – | – | C=CC(=O)Nc1cccc(-c2nc(Nc3ncc(C)s3)cc3c2ccn3CC(C)C)c1C [Example 62, N-(3-(1-isobutyl-6-((5-methylthiazol-2-yl)amino)-1H-pyrrolo[3,2-c]pyridin-4-yl)-2-methylphenyl)acrylamide]
– | – | ≤ 20 nM | 20 to 100 nM | C=CC(=O)Nc1cc(-c2nc(Nc3ncc(C)s3)cc3c2ccn3C)ccc1F [Example 54, N-(2-fluoro-5-(1-methyl-6-((5-methylthiazol-2-yl)amino)-1H-pyrrolo[3,2-c]pyridin-4-yl)phenyl)acrylamide]
– | – | ≤ 20 nM | ≤ 20 nM | C=CC(=O)N1CC(C)C(Oc2nc(Nc3ncc(C)s3)cc3c2ccn3CC(C)C)C1 (stereo not shown) [Example 116, 1-(3-((1-isobutyl-6-((5-methylthiazol-2-yl)amino)-1H-pyrrolo[3,2-c]pyridin-4-yl)oxy)-4-methylpyrrolidin-1-yl)prop-2-en-1-one]
– | – | 20 to 100 nM | 20 to 100 nM | C=CC(=O)N1CC(Oc2nc(Nc3ncc(C)s3)cc3c2ccn3CC(C)C)C1 [Example 118, 1-(3-((1-isobutyl-6-((5-methylthiazol-2-yl)amino)-1H-pyrrolo[3,2-c]pyridin-4-yl)oxy)azetidin-1-yl)prop-2-en-1-one]
